The results in this text go back to EP0428000A1, “Fluorogenic substrates for the detection of proteolytic enzyme activity” (priority 1989, dated 1991).

The conditions of data set [1]: pH 4.7, aqueous buffer.
The conditions of data set [2]: assay buffer used.
The test system of data set [3] is AMV protease. The data set is classed as biochemical, avian myeloblastosis virus (AMV). The method, then: (§1) Rate measurements of the change of the fluorescence intensity over time were also performed for reaction mixtures containing a protease enzyme and a fluorogenic substrate of the present invention.
Data set [4] addresses T1, HIV protease (Human immunodeficiency virus type 1 group M subtype B, UniProt P04585). Briefly: Fluorescence enhancement of substrate on hydrolysis by HIV protease. The data set is classed as biochemical, human immunodeficiency virus-1 (HIV-1). Further details: The 11 kd protease enzyme, which is encoded by the human immunodeficiency virus-1 (HIV-1). The procedure:
Analytical HPLC and the isolation of substrate fragments were performed in accordance with methods well known in the art on a Hewlett Packard 1090M system equipped with diode array absorbance and fluorescence detectors, using either a Brownlee 250 x 4.6 mm C8 silica column at pH values below 5, or a Hamilton 50 x 4.1 mm PRP3 polymer column over a pH range of 2-8. A water to acetonitrile gradient was used; either 0.1% trifluoroacetic acid (pH of about 2), 10 mM sodium acetate (pH 4.9), or 10 mM Tris-HCl (pH 8) was included to vary the pH.
The detection system permitted the simultaneous acquisition of the chromatograms for fluorescence and several absorbance wavelengths, as well as the absorption spectra for all peaks. The fluorescence (excitation at 340 nm, emission at 490 nm) and 475 nm absorbance signals, which arise respectively from the EDANS and DABCYL groups, were used to monitor and quantitate the fragments produced by proteolysis of the substrate.
The molar fluorescence enhancement of Substrate I was also estimated by HPLC analysis of HIV protease/Substrate reaction mixtures at times before the hydrolysis reaction was complete. […]

The target in data set [5] is T1, HIV protease. Briefly: HIV protease activity towards fluorogenic substrates. The format is biochemical, human immunodeficiency virus-1 (HIV-1). Set-up: The 11 kd protease enzyme, which is encoded by the human immunodeficiency virus-1 (HIV-1). The procedure: as §1
The next data set is described as follows: physchem. The note with it: NaOAc buffer, pH 4.7, aqueous buffer.
Data set [6] deals with T1, HIV protease. As to the kind of experiment: Fluorogenic assay for inhibition of HIV protease (Substrate I). Particulars: Cornish-Bowden plot, parallel lines; pH 4.7, 30°C.
Description: Typically, the assay reaction is performed using buffered solutions, and the reaction is allowed to proceed to virtual completion. The hydrolysis of the fluorogenic substrate by the protease enzyme is monitored by steady state fluorescence using a spectrofluorometer. Fluorescence intensity measurements can be acquired continuously and recorded directly by an interfaced microcomputer. The rate of fluorescent substrate hydrolysis can then be computed from a linear regression analysis. In this assay, the rate of hydrolysis of the fluorogenic substrate is directly proportional to the concentration of the protease. By omitting the protease inhibitor compound from the reaction mixture, the rate of change in fluorescent intensity due to the enzyme's activity can be determined. […]
The assay reaction was carried out in a fluorescence microcell (3 mm), for which a total sample volume of 120 microliters is adequate in most fluorometers. […] Prewarmed substrate solution (20 µL at 30°C) was then added to the microcell, and the fluorescence intensity of the reaction mixture was recorded as a function of time. […] The rate of change of the fluorescence intensity over the subsequent five to eight minutes was determined by linear regression. […] Therefore, the per cent inhibition was calculated as 100 x (1 - (rate in presence of inhibitor)/(rate in absence of inhibitor)).
Data set [7] deals with AMV protease (Avian myeloblastosis virus, UniProt P26315). As to the kind of experiment: Fluorogenic assay for inhibition of AMV protease (Substrate II). The data set is classed as biochemical. The procedure: as §1
AMV protease (Avian myeloblastosis virus, UniProt P26315), sequence (P26315 whole entry): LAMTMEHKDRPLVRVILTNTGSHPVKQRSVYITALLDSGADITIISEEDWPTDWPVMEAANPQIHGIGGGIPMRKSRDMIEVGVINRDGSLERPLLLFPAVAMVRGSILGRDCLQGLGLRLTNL

Values after ≈ are worked out from the molar mass of the structure shown. Like-named read-outs stand apart in the source and are kept apart here. Numbered stars: 1 amine (or outer) side, 2 acyl side, 3 side chain; on linkers, the order of the positions; unused ones are H or OH. Square brackets hold non-standard residues; d marks the D form. Peptide text beside a SMILES is read from it. * marks the point of attachment. X3 = Nc1c(S(=O)(=O)O)cc2c3c(cc(S(=O)(=O)O)cc13)C(=O)N(CCCCCN*)C2=O; Dabcyl = CN(C)c1ccc(N=Nc2ccc(C(=O)*)cc2)cc1; X2 = CN(C)c1ccc(N=Nc2ccc(S(=O)(=O)*)cc2)cc1; X1 = CN(C)c1ccc(/N=N/c2ccc(C(=O)*)cc2)cc1; EDANS = O=S(=O)(O)c1cccc2c(NCCN*)cccc12; Sta = CC(C)C[C@H](N)[C@@H](O)CC(=O)O; NMeGABA = CN(CCCC(=O)[*:2])[*:1]; Isovaleryl = CC(C)CC(=O)*; GABA = NCCCC(=O)O

As for `CC[C@H](C)[C@H](NC(=O)[C@@H]1CCCN1C(=O)[C@H](Cc1ccc(O)cc1)NC(=O)[C@H](CC(N)=O)NC(=O)[C@H](CCC(N)=O)NC(=O)[C@H](CO)NC(=O)CCCNC(=O)c1ccc(N=Nc2ccc(N(C)C)cc2)cc1)C(=O)N[C@H](C(=O)N[C@@H](CCC(N)=O)C(=O)NCCCCCN1C(=O)c2cc(S(=O)(=O)O)cc3c(N)c(S(=O)(=O)O)cc(c23)C1=O)C(C)C` ({Dabcyl-GABA}-SQNYPIVQ-X3), in data set [1], the solubility was at least 350 µM.
For `CC[C@H](C)[C@H](NC(=O)[C@H](CCC(N)=O)NC(=O)[C@@H]1CCCN1C(=O)[C@H](Cc1ccccc1)NC(=O)[C@H](CC(N)=O)NC(=O)[C@H](Cc1ccccc1)NC(=O)[C@H](CO)NC(=O)[C@@H](NC(=O)CCCN(C)S(=O)(=O)c1ccc(N=Nc2ccc(N(C)C)cc2)cc1)C(C)C)C(=O)N[C@H](C(=O)N[C@@H](CC(C)C)C(=O)NCCNc1cccc2c(S(=O)(=O)O)cccc12)[C@@H](C)O` [Substrate III] (X2-[NMeGABA]VSFNFPQITL-{EDANS}), the “solubility (in words)” value in data set [2] was “poor solubility”.
Consider `CC(C)[C@H](NC(=O)[C@H](CO)NC(=O)CCCNC(=O)c1ccc(/N=N/c2ccc(N(C)C)cc2)cc1)C(=O)N[C@H](C(=O)N[C@@H](Cc1ccc(O)cc1)C(=O)N1CCC[C@H]1C(=O)N[C@H](C(=O)N[C@H](C(=O)N[C@@H](CCC(N)=O)C(=O)NCCNc1cccc2c(S(=O)(=O)O)cccc12)C(C)C)C(C)C)C(C)C` [Substrate II] ({X1-GABA}-SVVYPVVQ-{EDANS}), for which, in the data set with AMV protease [3], the “AMV protease activity against Substrate II relative to Substrate I” value is “at least 50 fold” and the “cleavage by AMV protease (in words)” value is “efficient substrate”.
As for `CC[C@H](C)[C@H](NC(=O)[C@H](CCSC)NC(=O)[C@H](Cc1ccc(O)cc1)NC(=O)[C@H](CC(N)=O)NC(=O)[C@H](CCC(N)=O)NC(=O)[C@H](CO)NC(=O)CCCN(C)S(=O)(=O)c1ccc(N=Nc2ccc(N(C)C)cc2)cc1)C(=O)N[C@H](C(=O)N[C@@H](CCC(N)=O)C(=O)NCCNc1cccc2c(S(=O)(=O)O)cccc12)C(C)C` [Substrate IV] (X2-[NMeGABA]SQNYMIVQ-{EDANS}), in data set [2], the “solubility (in words)” value was “poor solubility”.
Regarding `CC[C@H](C)[C@H](NC(=O)[C@@H]1CCCN1C(=O)[C@H](Cc1ccc(O)cc1)NC(=O)[C@H](CC(N)=O)NC(=O)[C@H](CCC(N)=O)NC(=O)[C@H](CO)NC(=O)CCCNC(=O)c1ccc(/N=N/c2ccc(N(C)C)cc2)cc1)C(=O)N[C@H](C(=O)N[C@@H](CCC(N)=O)C(=O)NCCNc1cccc2c(S(=O)(=O)O)cccc12)C(C)C` [Substrate I] ({X1-GABA}-SQNYPIVQ-{EDANS}), in the data set with AMV protease [3], the “cleavage by AMV protease (in words)” value is “not by AMV protease”. Besides, on HIV protease [4] (HPLC analysis, pH 4.9, acetonitrile-water), the “enhancement of the fluorescence quantum yield of the Pro-Ile-Val-Gln-EDANS fragment over the parent substrate” value was determined as 33 fold. Moreover, the “fluorescence enhancement on cleavage” value on HIV protease [4] (under assay conditions) is given as 40 fold. Further, the “cleavage by HIV protease (in words)” value at HIV protease [5] is on record as “cleaved quite efficiently”. Moreover, on HIV protease [5] (HIV protease), the “maximum velocity for the enzymatic reaction (Vmax)” value was 47 nM/min. Further, the Km on HIV protease [5] (HIV protease; read-out: Michaelis-Menten kinetics constant (Km)) came out at 103 µM. The “rate of cleavage by HIV protease, Substrate I relative to Substrate II” value at HIV protease [5] (each substrate 3.4 µM) was “ten times faster”. In addition, the solubility in the data set “physchem” is around 150 µM (≈ 230 µg/mL).
On to `CC[C@H](C)[C@H](NC(=O)[C@@H](NC(=O)[C@H](C)NC(=O)[C@@H](NC(=O)CCCNC(=O)c1ccc(/N=N/c2ccc(N(C)C)cc2)cc1)[C@@H](C)O)[C@@H](C)O)C(=O)N[C@@H](CCSC)C(=O)N[C@@H](CCSC)C(=O)N[C@@H](CCC(N)=O)C(=O)N[C@@H](CCCNC(=N)N)C(=O)NCC(=O)N[C@@H](CCC(=O)O)C(=O)NCCNc1cccc2c(S(=O)(=O)O)cccc12` [Substrate VII] ({X1-GABA}-TATIMMQRGE-{EDANS}), for which the “cleavage by HIV protease (in words)” value on HIV protease [5] was “more efficient substrate”. The “maximum velocity for the enzymatic reaction (Vmax)” value on HIV protease [5] (HIV protease) stood at 1.8 nM/min. For the same molecule, the Km at HIV protease [5] (read-out: Michaelis-Menten kinetics constant (Km); HIV protease) came to 5.9 µM.
As to `CC[C@H](C)[C@H](NC(=O)[C@@H]1CCCN1C(=O)[C@H](Cc1ccccc1)NC(=O)[C@H](CC(N)=O)NC(=O)[C@H](CC(C)C)NC(=O)[C@@H](NC(=O)[C@H](C)NC(=O)CCCNC(=O)c1ccc(/N=N/c2ccc(N(C)C)cc2)cc1)[C@@H](C)O)C(=O)N[C@@H](CO)C(=O)N[C@@H](CCC(N)=O)C(=O)N[C@@H](CCC(=O)O)C(=O)NCCNc1cccc2c(S(=O)(=O)O)cccc12` [Substrate VI] ({X1-GABA}-ATLNFPISQE-{EDANS}), the “cleavage by HIV protease (in words)” value at HIV protease [5] is “not as efficiently as was Substrate I”.
For `CC[C@H](C)[C@H](NC(=O)CCCNC(=O)c1ccc(/N=N/c2ccc(N(C)C)cc2)cc1)C(=O)N[C@@H](CCCNC(=N)N)C(=O)N[C@@H](CCC(N)=O)C(=O)N[C@@H](C)C(=O)N[C@@H](CC(N)=O)C(=O)N[C@@H](Cc1ccccc1)C(=O)N[C@@H](CC(C)C)C(=O)NCC(=O)N[C@@H](CC(C)C)C(=O)NCCNc1cccc2c(S(=O)(=O)O)cccc12` [Substrate V] ({X1-GABA}-IRQANFLGL-{EDANS}), the “cleavage by HIV protease (in words)” value on HIV protease [5] is “not as efficiently as was Substrate I”.
Consider `CC(C)CC(=O)N[C@H](C(=O)N[C@H](C(=O)N[C@@H](CC(C)C)[C@@H](O)CC(=O)N[C@@H](C)C(=O)N[C@@H](CC(C)C)[C@@H](O)CC(=O)O)C(C)C)C(C)C` [pepstatin] (Isovaleryl-VV[Sta]A[Sta]-OH), for which the “mode of inhibition of the protease” value at HIV protease [6] is on record as “purely competitive”. Further, on AMV protease [7], the IC50 was around 40 µM.
